From PMC11058299, “Synthesis, molecular docking evaluation for LOX and COX-2 inhibition and determination of in-vivo analgesic potentials of aurone derivatives” (Heliyon, 2024)
“And” between values parts separate entries of the source, which are not always exact repeats. Identical values can stand only once.

Key:
[1] = tested on: opioid receptors (tail flicking latency); assay: Assessment of opioid mechanism via tail immersion test with Naloxone; type: in vivo; settings: mice; for Latency response 30 min: control 3.14 ± 0.31; for Latency response 60 min: control 3.17 ± 0.41; for Latency response 120 min: control 3.20 ± 0.29; for Latency response 90 min: control 3.31 ± 0.44
Protocol: The cut-off time was set at 25 s, and the time taken for the mice to flick their tails out of the water was recorded at 30, 60, 90, and 120-min intervals. An increase in the time of tail immersion was compared to the control group to determine the analgesic effect of the tested drugs. The percentage of inhibition was calculated at the time interval showing the highest effect.
To verify the involvement of the opioid mechanism, following the approach outlined in the published study. […] These derivatives were assessed for their potential opioid activity within the control, sample compounds and standard groups using the tail immersion test.

[2] = tested on: formalin induced paw licking; assay: Formalin induced paw licking test; type: in vivo; settings: 20 mg/kg oral, mice
Protocol: The animals were divided into various groups I-XVI consisting of 8 experimental animals for control, sample compounds (WE-1 to WE-7) and standard. Group I: Control, Group II-XV: WE-1 to WE-7 (sample compounds) at dose of 10 mg/kg and 20 mg/kg and Group XVI: Standard. The control (Group I) was given normal saline. Group II-XV received 10 mg/kg and 20 mg/kg of test sample (WE-1 to WE-7). […] The acute peripheral and centrally mediated analgesic activity of aurone derivatives was evaluated using the formalin-induced pain method, as described. Samples compounds (WE-1 to WE-7) and a standard (Indomethacin 10 mg) were orally administered 30 min prior to 20 μl of 1 % formalin injection (prepared in 0.9 % saline) in right hind paw of the mice and immediately placed in a clear box to observe the animal's reaction. Paw licking or biting within 0–5 min indicated Phase 1, while animal reactions observed between 15 and 30 min indicated Phase 2. The number of paw licking or biting events was compared to the control group, and the percentage of inhibition was calculated.

[3] = tested on: acetic acid induced writhing; assay: Acetic acid induced writhing test; type: in vivo; settings: mice; for number of writhing: mean ± SEM, control 61.22 ± 3.90
Protocol: The animals were divided into various groups I-XVI consisting of 8 experimental animals for control, sample compounds (WE-1 to WE-7) and standard. Group I: Control, Group II-XV: WE-1 to WE-7 (sample compounds) at dose of 10 mg/kg and 20 mg/kg and Group XVI: Standard. The control (Group I) was given normal saline. Group II-XV received 10 mg/kg and 20 mg/kg of test sample (WE-1 to WE-7). […] The writhing test, following a previously established method, was conducted to assess the analgesic potential of the aurone derivatives. The mice were orally administered samples compounds (WE-1 to WE-7)and standard (Diclofenac sodium 10 mg/kg) 1 h before intraperitoneal administration 10 ml/kg of 1 % acetic acid. Five minutes after the acetic acid administration, the numbers of writhing episodes were counted for 10 min, and the percentage of inhibition was subsequently calculated.

COX-2 enzyme = biological target: T1, COX-2 enzyme (Homo sapiens, UniProt P35354); assay: COX-2 inhibitory assay; type: biochemical; settings: Table 2
T1 construct: purchased Sigma Aldrich
T1 sequence (P35354 18-604): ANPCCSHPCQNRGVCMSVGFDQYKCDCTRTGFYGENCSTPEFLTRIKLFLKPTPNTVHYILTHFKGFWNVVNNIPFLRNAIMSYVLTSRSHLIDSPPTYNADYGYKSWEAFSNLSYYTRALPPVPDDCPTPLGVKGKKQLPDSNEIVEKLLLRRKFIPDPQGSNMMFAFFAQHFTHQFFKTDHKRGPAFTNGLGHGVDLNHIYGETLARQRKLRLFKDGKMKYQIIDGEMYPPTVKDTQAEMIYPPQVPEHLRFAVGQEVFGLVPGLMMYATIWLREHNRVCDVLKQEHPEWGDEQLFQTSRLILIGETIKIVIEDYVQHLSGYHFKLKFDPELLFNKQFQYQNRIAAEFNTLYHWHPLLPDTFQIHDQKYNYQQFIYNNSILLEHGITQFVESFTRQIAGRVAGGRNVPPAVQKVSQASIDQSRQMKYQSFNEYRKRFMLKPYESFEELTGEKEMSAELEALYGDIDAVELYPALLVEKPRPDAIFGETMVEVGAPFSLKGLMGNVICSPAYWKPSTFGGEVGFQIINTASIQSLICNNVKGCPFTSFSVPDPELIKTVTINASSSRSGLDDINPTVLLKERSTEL
Protocol: COX-2 inhibition was measured spectrophotometrically at 550 nm after the formation of oxidized form of tetramethlenephenylenediamine (TMPD). This assay was conducted according to previously reported procedure. […] The reaction contained 10 μL COX-2 enzymes (100 μM in diluted in DMSO), 10 μL haem of 2.2 mM diluted in DMSO, tris buffers (pH. 8, 100 μl) and drug samples according to the above stated procedure. The reaction was started by the addition of freshly prepared TMPD and methanolic arachidonic acid (AA). Celecoxib is used as a reference drug in this assay. After 5 min of incubation at 25–28C, the absorbance was measured at 550 nm and inhibition was calculated.

**Q.** With `COc1ccc(C=C2Oc3ccccc3C2=O)cc1OC` [WE-4, 2-(3,4-dimethoxybenzylidene)benzofuran-3(2H)-one] as the molecule, how does the “Latency response 30 min” value ([1]; 10 mg/kg + Naloxone 2 mg/kg) read?
**A.** 3.60 ± 0.61

**Q.** And the “Latency response 60 min” value ([1]; 10 mg/kg + Naloxone 2 mg/kg)?
**A.** 4.49 ± 0.43

**Q.** And the “Latency response 120 min” value ([1]; 10 mg/kg + Naloxone 2 mg/kg)?
**A.** 3.80 ± 0.49

**Q.** And the “Latency response 90 min” value ([1]; 10 mg/kg + Naloxone 2 mg/kg)?
**A.** 5.30 ± 0.48

**Q.** And the “Latency response 30 min” value ([1]; 20 mg/kg + Naloxone 2 mg/kg)?
**A.** 3.41 ± 0.48

**Q.** And the “Latency response 60 min” value ([1]; 20 mg/kg + Naloxone 2 mg/kg)?
**A.** 4.67 ± 0.60

**Q.** And the “Latency response 120 min” value ([1]; 20 mg/kg + Naloxone 2 mg/kg)?
**A.** 4.03 ± 0.57

**Q.** What about the “Latency response 90 min” value ([1]; 20 mg/kg + Naloxone 2 mg/kg) of the same molecule?
**A.** 4.80 ± 0.61

**Q.** And the “percentage inhibition of paw licking, Phase I” value ([2]; initial phase)?
**A.** 49.97%

**Q.** What about the “percentage inhibition of paw licking, Phase II” value ([2]; late phase) of the same molecule?
**A.** 70.93% and 70.96%

**Q.** What about the “number of formalin-induced paw licking, Phase II” value ([2]; late phase, control 55.81 ± 3.29) of the same molecule?
**A.** 16.22 ± 1.86

**Q.** And the “percent analgesic effect (inhibition of writhing)” value ([3]; 10 mg/kg oral)?
**A.** 71.30%

**Q.** What about the number of writhing ([3]; 10 mg/kg oral) of the same molecule?
**A.** 17.57 ± 1.94

**Q.** What about the “percent analgesic effect (inhibition of writhing)” value ([3]; 20 mg/kg oral) of the same molecule?
**A.** 77.60%

**Q.** And the number of writhing ([3]; 20 mg/kg oral)?
**A.** 13.71 ± 1.77

**Q.** And the melting point?
**A.** 175 to 178 °C

**Q.** And the IC50 (COX-2 enzyme)?
**A.** 0.22 µM
